From PMC6470589, “Contribution of Molecular Structure to Self-Assembling and Biological Properties of Bifunctional Lipid-Like 4-(N-Alkylpyridinium)-1,4-Dihydropyridines” (Pharmaceutics, 2019)
Values joined by “and” are separate entries in the source; they are usually repeats but may differ in a detail not shown here. Equal entries are not always repeated. “Also recorded” adds a separate entry of the source.

How the values were obtained:
[1] = test system: six prokaryotic (bacteria) and one eukaryotic (yeast) microorganism species; assay: Toxicity screen, whole panel of microorganisms; type: cell-based; conditions: concentrations tested 10 to 0.001 mM
Experimental: (§1) An estimation of the toxicity of 4-(N-alkylpyridinium)-1,4-DHP derivatives 3, 6, 7, and 9–11 was performed using six prokaryotic (bacteria) and one eukaryotic (yeast) microorganism species according to the procedure elaborated by Suppi et al.. The microorganisms used in the study and their origin were: Bacillus subtilis subsp. spizizenii (ATCC® 6633™*, Microbiologics®, St Cloud, MN, USA), Escherichia coli (ATCC® 8739, Microbiologics®), Klebsiella pneumoniae (Latvian Microorganisms strain collection, LMKK, strain number 535, Riga, Latvia), Micrococcus luteus (LMKK, No. 25), Pseudomonas aeruginosa (NCTC 12924, Biosciences Ltd., Dublin, Ireland), Proteus mirabilis (LMKK, No 590), and Saccharomyces cerevisiae, CEN.PK2 strain [32].
(§2) Bacteria and yeast cultures were cultivated until their exponential growth phase (optical density max 1); then, 100 µL of cell suspension was taken, washed in deionised (DI) water, and added to serially diluted samples of corresponding 4-(N-alkylpyridinium)-1,4-DHPs in DI water. All 1,4-DHPs were tested in five serially diluted concentrations (10 mM, 1 mM, 0.1 mM, 0.01 mM, and 0.001 mM). Test organisms were exposed to 1,4-DHP derivatives in DI water on 96-well microplates (Corning, Corning, NY, USA) at 28 °C for 24 h without shaking in the dark. Then, a 5 µL sample was taken from each well and spotted on yeast extract, bactopeptone, dextrose broth (YPD) (yeast extract 1%, bactopeptone 2%, glucose 2% and agar 2%) plates to test the growth of yeasts and lysogeny broth (LB) (yeast extract 0.5%, bactopeptone 1%, NaCl 0.5% and agar 2%) to test the growth for bacteria. Plates were left in 30 °C for 24 h, and assessed for microbial growth.
(§3) If there were no colonies after incubation with 1,4-DHPs in the last concentration of (0.001 mM), then their boundary concentration was set to 0.0001 mM or 0.1 µM.

[2] = Self-assembling properties by dynamic light scattering (DLS); type: physicochemical; conditions: for PDI ± SD, 1 Set: freshly prepared samples; for PDI ± SD, 2 Set: two weeks after the first set, samples stored at r.t.; for Stability of nanoparticles: two weeks of storage at r.t., DLS; for Zeta-Pot ± SD: freshly prepared samples in water, 0.5 mg/mL (1–7), 0.25 mg/mL (8–10), 0.1 mg/mL (11)
Experimental: Samples of compounds for dynamic light scattering (DLS) studies were prepared by thin-film hydration method in an aqueous solution at a concentration of 0.5 mg/mL for compounds 1–7, 0.25 mg/mL for compounds 8–10, and 0.1 mg/mL for compound 11. A corresponding amount of compounds was weighted in a round-bottom flask and dissolved in chloroform; then, the organic solvent was removed in vacuo, and the residue was dried in high vacuo for 1 h. An appropriate amount of deionised water was added to each flask for the preparation of stock solutions with the above-mentioned concentrations. Samples were prepared by sonication using a bath-type sonicator (Cole Parmer Ultrasonic Cleaner 8891CPX (Vernon Hills, IL, USA)). Samples were sonicated for 60 min at 50 °C.
The DLS measurements of the nanoparticles in an aqueous solution were carried out on a Zetasizer Nano ZSP (Malvern Panalytical Ltd., Malvern, UK) instrument with Malvern Instruments Ltd. Software 7.12, using the following specifications—medium: water; refractive index: 1.33; viscosity: 0.8872 cP; temperature: 25 °C; dielectric constant: 78.5; nanoparticles: liposomes; refractive index of materials: 1.60; detection angle: 173°; wavelength: 633 nm. Data were analysed using the multimodal number distribution software that was included with the instrument. The measurements were performed in triplicate in order to check their reproducibility.

[3] = Determination of critical aggregation concentration (CAC) by DLS; type: physicochemical; conditions: aqueous media
Experimental: The critical aggregation concentrations (CAC) of 4-(N-alkylpyridinium)-1,4-DHP derivatives were determined in aqueous media using a Zetasizer Nano S90 (Malvern Panalytical Ltd., Malvern, UK) instrument with Malvern Instruments Ltd. Software according to procedure described by Topel et al. and modified by our group. Briefly, as stock solutions of tested compounds were used, samples were prepared for self-assembling experiments. All of the subsequent samples were prepared starting from the concentrated stock solution, which was subjected to a serial two-fold dilution each time with water. The intensity values of scattered light (kcps) as a function of concentration of amphiphiles were analysed. The scattering intensities detected for amphiphile concentrations below CAC have an approximately constant value corresponding to water. The intensity starts to show a linear increase with concentration at the CAC, since the amount of nanoparticles increases in the solution. The intersection of the best-fit lines drawn through the data points is the preliminary CAC value of the compounds.

[4] = test system: Pseudomonas aeruginosa; assay: Toxicity screen, serial dilution-spot test; type: cell-based; conditions: gram negative; 24 h exposure in DI water, 28 °C; 0.0001 = no colonies at 0.001 mM;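 also: last dilution that did not fully inhibit growth with colonies still present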
Experimental: as §1, §2, §3

[5] = test system: Micrococcus luteus; assay: Toxicity screen, serial dilution-spot test; type: cell-based; conditions: gram positive; 24 h exposure in DI water, 28 °C; 0.0001 = no colonies at 0.001 mM;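 also: last dilution that did not fully inhibit growth with colonies still present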
Experimental: as §1, §2, §3

[6] = test system: Bacillus subtilis subsp. spizizenii; assay: Toxicity screen, serial dilution-spot test; type: cell-based; conditions: gram positive; 24 h exposure in DI water, 28 °C; 0.0001 = no colonies at 0.001 mM;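 also: last dilution that did not fully inhibit growth with colonies still present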
Experimental: as §1, §2, §3

[7] = test system: Escherichia coli; assay: Toxicity screen, serial dilution-spot test; type: cell-based; conditions: gram negative; 24 h exposure in DI water, 28 °C; 0.0001 = no colonies at 0.001 mM;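 also: last dilution that did not fully inhibit growth with colonies still present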
Experimental: as §1, §2, §3

[8] = test system: Proteus mirabilis; assay: Toxicity screen, serial dilution-spot test; type: cell-based; conditions: gram negative; 24 h exposure in DI water, 28 °C; 0.0001 = no colonies at 0.001 mM;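 also: last dilution that did not fully inhibit growth with colonies still present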
Experimental: as §1, §2, §3

[9] = test system: Klebsiella pneumoniae; assay: Toxicity screen, serial dilution-spot test; type: cell-based; conditions: gram negative; 24 h exposure in DI water, 28 °C; 0.0001 = no colonies at 0.001 mM;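 also: last dilution that did not fully inhibit growth with colonies still present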
Experimental: as §1, §2, §3

[10] = test system: Saccharomyces cerevisiae, CEN.PK2 strain; assay: Toxicity screen, serial dilution-spot test; type: cell-based; conditions: yeast; 24 h exposure in DI water, 28 °C; 0.0001 = no colonies at 0.001 mM;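 also: last dilution that did not fully inhibit growth with colonies still present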
Experimental: as §1, §2, §3

[11] = test system: MH-22A (mouse hepatocarcinoma) cells; assay: MTT cytotoxicity assay on MH-22A tumor cells, 72 h; type: cell-based; conditions: MTT, 72 h; ne = no effect in the tested concentration (up to 100 μg/mL)
Experimental: (§4) Tumor cell lines HT-1080 (human connective tissue fibrosarcoma) and MH-22A (mouse hepatocarcinoma) were used. All of the cells were obtained from the American Type Culture Collection ((ATCC,) Rockville, MD, USA). HT-1080 and MH-22A cells (4 × 10^4 cell/mL) were seeded in 96-well plates in Dulbecco’s modified Eagle’s medium (DMEM) containing 10% fetal bovine serum and cultivated for 72 h at 37 °C, 5% CO2 by exposure to different compounds concentrations (100 μg/mL, 25 μg/mL, 6.25 μg/mL, and 1.56 μg/mL). Cell viability was measured using 3-(4,5-dimethylthiazol-2-yl)-2,5-diphenyl-tetrazolium bromide (MTT) assay. In brief, after incubating with compounds, the culture medium was removed and fresh medium with 0.2 mg/mL MTT was added in each well of the plate. After incubation (3 h, 37 °C, 5% CO2), the medium with MTT was removed, and 200 μL of DMSO was added at once to each sample. The samples were tested at 540 nm on a Tecan multiplate reader Infinite1000 (Tecan Austria GmbH, Salzburg, Austria). The IC50 was calculated using the program Graph Pad Prism® 3.0.

[12] = test system: HT-1080 (human connective tissue fibrosarcoma) cells; assay: MTT cytotoxicity assay on HT-1080 tumor cells, 72 h; type: cell-based; conditions: MTT, 72 h; ne = no effect in the tested concentration (up to 100 μg/mL)
Experimental: as §4

[13] = MTT cytotoxicity assay on MH-22A tumor cells, 72 h; type: cell-based, mouse; conditions: mouse, MH-22A hepatocarcinoma cells, MTT, 72 h; ne = no effect in the tested concentration (up to 100 μg/mL); read-out: Cytotoxicity IC50, MH-22A
Experimental: as §4

[14] = test system: NIH 3T3 (Mouse Swiss Albino embryo fibroblast) cells; assay: Basal cytotoxicity test (neutral red uptake) with estimation of LD50 from IC50; type: cell-based; conditions: category by estimated LD50 (mg/kg)
Experimental: The neutral red uptake (NRU) assay was performed according to the standard protocol of Stokes modified by NICEATM-ECVAM validation study. The NRU cytotoxicity assay procedure was based on the ability of viable cells to incorporate and bind neutral red, which is a supravital dye.
NIH 3T3 (Mouse Swiss Albino embryo fibroblast) cells (9000 cells/well) were placed into 96-well plates for 24 h in DMEM medium containing 5% fetal bovine serum (FBS). Then, they were exposed to the test compound over a range of seven concentrations (1000 μg/mL, 316 μg/mL, 100 μg/mL, 31 μg/mL, 10 μg/mL, 3.0 μg/mL, and 1.0 μg/mL) for 24 h. Untreated cells were used as a control. After 24 h, the medium was removed from all plates. Then, 250 μL of neutral red (NR) solution was added (0.05 mg/mL NR in DMEM 24 h pre-incubated at 37 °C and then filtered before use through a 0.22-µm syringe filter). Plates were incubated for 3 h, and then, cells were washed three times with phosphate buffered saline (PBS). The dye within viable cells was released by extraction with a mixture of acetic acid, ethanol, and water (1:50:49). The absorbance of neutral red was measured using a spectrophotometer multiplate reader Infinite M1000 (Tecan Austria GmbH, Salzburg, Austria) at 540 nm. The optical density (OD) was calculated using the formula: OD (treated cells) × 100/OD (control cells). The IC50 values were calculated using the program Graph Pad Prism® 3.0.
Data from the in vitro tests were used for estimating the starting dose for acute oral systemic toxicity tests in rodent. The in vivo starting dose is an estimated LD50 value that is calculated by inserting the in vitro IC50 value into a regression formula: log LD50 (mM/kg) = 0.439 log IC50 (mM) + 0.621 [29]. The value is recalculated to mg/kg, and compounds are evaluated in accordance with four toxicity categories: category 1: LD50 ≤ 5 mg/kg (highly toxic); category 2: 5 < LD50 ≤ 50 mg/kg (moderately toxic); category 3: 50 < LD50 ≤ 300 mg/kg (slightly toxic); category 4: 300 < LD50 ≤ 2000 mg/kg (practically non-toxic). Using an alternative in vitro method enables comparing the possible toxicity of new compounds and selecting compounds for further study, which will vastly reduce the number of animal experiments.

[15] = MTT cytotoxicity assay on HT-1080 tumor cells, 72 h; type: cell-based, human; conditions: human, HT-1080 fibrosarcoma cells, MTT, 72 h; ne = no effect in the tested concentration (up to 100 μg/mL); read-out: Cytotoxicity IC50, HT-1080
Experimental: as §4

Structure (SMILES)	Effect on survival of microorganisms [1]	PDI ± SD, 1 Set [2]	PDI ± SD, 2 Set [2]	Stability of nanoparticles [2]	CAC [3]	Boundary concentration, P. aeruginosa [4]	Boundary concentration, M. luteus [5]	Boundary concentration, B. subtilis [6]	Boundary concentration, E. coli [7]	Boundary concentration, P. mirabilis [8]	Boundary concentration, K. pneumoniae [9]	Boundary concentration, S. cerevisiae [10]	Cytotoxicity IC50, MH-22A [11]	Cytotoxicity IC50, HT-1080 [12]	Zeta-Pot ± SD [2]	IC50 at 72 h [13]	Toxicity category from estimated LD50 [14]	IC50 at 72 h [15]
C#CCN1C(C)=C(C(=O)OCC)C(c2ccc[n+](CCCCCCCCCCCCCCCC)c2)C(C(=O)OCC)=C1C [Compound 11]	toxic at various degrees	0.37 and 0.37 ± 0.03	0.33 and 0.33 ± 0.03	stable after two weeks of storage; also recorded: confirmed the stability of nanoparticles	7.6 µM	0.01 mM	0.001 mM	0.0001 mM	0.01 mM	0.0001 mM	10 mM	0.0001 mM	–	–	–	–	–	–
C#CCN1C(C)=C(C(=O)OCC)C(c2ccc[n+](CC)c2)C(C(=O)OCC)=C1C [Compound 4]	–	0.16 and 0.16 ± 0.02	0.41 and 0.41 ± 0.07	lost their homogeneity after two weeks of storage; also recorded: weak stability	–	–	–	–	–	–	–	–	did not demonstrate any cytotoxic effect and ne	did not demonstrate any cytotoxic effect and ne	−5.47 ± 1.97 mV	–	–	–
CCCCCC[n+]1cccc(C2C(C(=O)OCC)=C(C)NC(C)=C2C(=O)OCC)c1 [Compound 2]	–	0.50 and 0.50 ± 0.10	0.91 ± 0.10	weak stability	–	–	–	–	–	–	–	–	–	–	−11.39 ± 1.85 mV	67 ± 4 µM	non-toxic	26 ± 2 µM
C#CCN1C(C)=C(C(=O)OCC)C(c2ccc[n+](CCCCCC)c2)C(C(=O)OCC)=C1C [Compound 5]	–	0.72 and 0.72 ± 0.32	0.59 ± 0.01	weak stability	–	–	–	–	–	–	–	–	–	–	−9.96 ± 0.72 mV	16 ± 1 µM	non-toxic	5 ± 0.3 µM
CCOC(=O)C1=C(C)NC(C)=C(C(=O)OCC)C1c1ccc[n+](CC)c1 [Compound 1]	–	0.18 and 0.18 ± 0.01	0.40 and 0.40 ± 0.16	lost their homogeneity after two weeks of storage; also recorded: weak stability	–	–	–	–	–	–	–	–	did not demonstrate any cytotoxic effect and ne	did not demonstrate any cytotoxic effect and ne	−8.43 ± 2.14 mV	–	–	–
C#CCOC(=O)C1=C(C)NC(C)=C(C(=O)OCC#C)C1c1ccc[n+](CCCCCC)c1 [Compound 8]	–	0.60 and 0.60 ± 0.06	0.45 ± 0.05	–	–	–	–	–	–	–	–	–	–	–	–	80 ± 5 µM	non-toxic	76 ± 8 µM
